Patent publication US20240400560A1, “BICYCLIC HETEROCYCLIC DERIVATIVE HAVING VIRAL GROWTH INHIBITORY ACTIVITY AND PHARMACEUTICAL COMPOSITION CONTAINING SAME” (Shionogi & Co., Ltd., priority 2021, published 2024)
Read-outs that look alike come from different tables or passages of the source.

Experiments:
SARS-CoV-2 3CL protease = SARS-CoV-2 3CL protease (Severe acute respiratory syndrome coronavirus 2, UniProt P0DTD1); assay: Inhibitory activity test against SARS-CoV-2 3CL proteases; type: biochemical
SARS-CoV-2 = assay: Inhibitory activity of cytopathic effect (CPE) in HEK293T/ACE2-TMPRSS2 cells; type: cell-based; details: Severe acute respiratory syndrome coronavirus 2, HEK-293T, 72 h
[1] = read-out: IC50 (50% SARS-CoV-2 3CL protease inhibitory concentration)
[2] = 50% SARS-CoV-2 infected cell death inhibitory concentration, HEK293T/ACE2-TMPRSS2 cells, CellTiter-Glo 2.0 after 3 days culture, read-out: EC50
[3] = HEK293T/ACE2-TMPRSS2 cells, cultured 3 days, CellTiter-Glo 2.0 luminescence, read-out: EC50 (50% SARS-CoV-2 infected cell death inhibitory concentration)
[4] = IC50 (50% SARS-CoV-2 3CL protease inhibitory concentration)

Row | SMILES | IC50 (SARS-CoV-2 3CL protease; [1]) [nM] | EC50 (SARS-CoV-2; [2]) [nM] | EC50 (SARS-CoV-2; [3]) [nM] | also measured
1 | Cn1cnc(Cn2c(=O)c3nc(OCC#N)c(-c4cc(C#N)ccc4Cl)cc3n(Cc3cc(F)c(F)c(F)c3)c2=O)n1 [Compound I-0685] | 28 | 82.2 |  | 
2 | CCCn1c(-c2cc(C#N)ccc2Cl)cc2c(c1=O)c(=O)n(-c1cncc(Cl)c1)c(=O)n2Cc1cc(F)c(F)c(F)c1 [Compound I-0686] | 1.7 | 22.4 |  | 
3 | CCOc1nc2c(=O)n(Cc3ncn(C)n3)c(=O)n(Cc3cc(F)c(F)c(F)c3)c2cc1-c1cc(C#N)ccc1Cl [Compound I-0692] | < 100 |  | < 100 | 
4 | Cn1cnc(Cn2c(=O)c3c(cc(-c4cc(C#N)ccc4Cl)c[n+]3[O-])n(Cc3cc(F)c(F)c(F)c3)c2=O)n1 [Compound I-0697] | 100 to 1000 |  | 1000 to 10000 | 
5 | COc1nc2c(=O)n(Cc3ncn(C)n3)c(=O)n(Cc3cc(F)c(F)c(F)c3)c2cc1-c1cc(C#N)ccc1Cl [Compound I-0699] | < 100 |  | < 100 | 
6 | COc1nc2c(=O)n(Cc3ncn(C)n3)c(=O)n(Cc3cc(F)c(F)c(Cl)c3)c2cc1-c1cc2c(cc1Cl)NC(=O)C2 [Compound I-0700] | 0.92 | 24.5 |  | 
7 | COc1nc2c(=O)n(Cc3ncn(C)n3)c(=O)n(Cc3cc(F)c(F)c(Cl)c3)c2cc1-c1cc(C(C)(C)O)ccc1Cl [Compound I-0701] | 5 | 16 |  | 
8 | C=Cc1nc2c(=O)n(Cc3ncn(C)n3)c(=O)n(Cc3cc(F)c(F)c(F)c3)c2cc1-c1cc(C#N)ccc1Cl [Compound I-0705] | < 100 |  | < 100 | 
9 | COc1c(-c2cc(C#N)ccc2Cl)cc2c(c(=O)n(Cc3ncn(C)n3)c(=O)n2Cc2cc(F)c(F)c(F)c2)[n+]1[O-] [Compound I-0709] | 100 to 1000 |  | 1000 to 10000 | 
10 | Cn1cnc(Cn2c(=O)c3c4nc[nH]c4c(-c4cc(C#N)ccc4Cl)cc3n(Cc3cc(F)c(F)c(F)c3)c2=O)n1 [Compound I-0712] | 100 to 1000 |  | 100 to 1000 | 
11 | COc1nc2c(=O)n(Cc3ncn(C)n3)c(=O)n(Cc3cc(Cl)ccc3Cl)c2cc1-c1cc(C#N)ccc1Cl [Compound I-0713] | < 100 |  | 100 to 1000 | 
12 | COc1nc2c(=O)n(Cc3ncn(C)n3)c(=O)n(Cc3cc(Cl)ccc3C)c2cc1-c1cc(C#N)ccc1Cl [Compound I-0717] | < 100 |  | < 100 | 
13 | COc1nc2c(=O)n(Cc3ncn(C)n3)c(=O)n(Cc3cc(F)c(F)c(C#N)c3)c2cc1-c1cc(C#N)ccc1Cl [Compound I-0721] | < 100 |  | < 100 | 
14 | COc1nc2c(=O)n(Cc3ncn(C)n3)c(=O)n(Cc3cc(C#N)c(F)cc3Cl)c2cc1-c1cc(C#N)ccc1Cl [Compound I-0722] | < 100 |  | < 100 | 
15 | COc1nc2c(=O)n(Cc3ncn(C)n3)c(=O)n(Cc3cc(C#N)c(F)cc3C)c2cc1-c1cc(C#N)ccc1Cl [Compound I-0723] | < 100 |  | < 100 | 
16 | COc1nc2c(=O)n(Cc3ncn(C)n3)c(=O)n(Cc3ccc(F)c(Cl)c3)c2cc1-c1cc(C#N)ccc1Cl [Compound I-0726] | < 100 |  | < 100 | 
17 | Cn1c(-c2cc(C#N)ccc2Cl)cc2c(c1=O)c(=O)n(-c1cnc3cc(F)ccn13)c(=O)n2Cc1cc(F)c(F)c(F)c1 [Compound I-0727] | 1.1 | 102 |  | 
18 | COc1nc(N2CCC(F)(F)C2)cc2c1c(=O)n(-c1cnc3cc(F)ccn13)c(=O)n2-c1ccc(F)c(Cl)c1 [Compound I-0728] | 5.1 | 7.65 |  | 
19 | COc1nc(N2[C@@H]3CC[C@H]2CNC3)cc2c1c(=O)n(-c1cnc3cc(F)ccn13)c(=O)n2-c1ccc(F)c(Cl)c1 [Compound I-0729] |  |  |  | IC50 (SARS-CoV-2 3CL protease; [4]): < 100 nM; EC50 (SARS-CoV-2; read-out: EC50 (50% SARS-CoV-2 infected cell death inhibitory concentration)): < 100 nM
20 | COc1nc(N2CC[C@@H](O)C2)cc2c1c(=O)n(-c1cnc3cc(F)ccn13)c(=O)n2Cc1cc(F)c(F)c(F)c1 [Compound I-0730] | < 100 |  | < 100 | 
21 | COc1nc(N2CC[C@@H](OC)C2)cc2c1c(=O)n(-c1cnc3cc(F)ccn13)c(=O)n2Cc1cc(F)c(F)c(F)c1 [Compound I-0731] | < 100 |  | < 100 | 
22 | COc1nc(N2CC[C@@H](C#N)C2)cc2c1c(=O)n(-c1cnc3cc(F)ccn13)c(=O)n2Cc1cc(F)c(F)c(F)c1 [Compound I-0732] | < 100 |  | < 100 | 
23 | COc1nc(N2CC[C@@H](O)C2)cc2c1c(=O)n(-c1cnc3cc(F)ccn13)c(=O)n2Cc1cc(F)c(F)c(Cl)c1 [Compound I-0734] | < 100 |  | < 100 | 
24 | COc1nc(N2CC[C@@H](OC)C2)cc2c1c(=O)n(-c1cnc3cc(F)ccn13)c(=O)n2Cc1cc(F)c(F)c(Cl)c1 [Compound I-0735] | < 100 |  | < 100 | 
25 | COc1nc(N2CC[C@@H](C#N)C2)cc2c1c(=O)n(-c1cnc3cc(F)ccn13)c(=O)n2Cc1cc(F)c(F)c(Cl)c1 [Compound I-0736] | 12 | 20.1 |  | 

Row | SMILES | IC50 (SARS-CoV-2 3CL protease; [1]) [nM] | EC50 (SARS-CoV-2; [2]) [nM] | EC50 (SARS-CoV-2; [3]) [nM] | also measured
26 | CCn1c(-c2cc(C#N)ccc2Cl)cc2c(c1=O)c(=O)n(-c1cnc3cc(F)ccn13)c(=O)n2Cc1cc(F)c(F)c(F)c1 [Compound I-0739] | 0.98 | 115 |  | 
27 | COc1nc(N2CC[C@@H](OC)C2)cc2c1c(=O)n(-c1cnc3cc(F)ccn13)c(=O)n2-c1ccc(F)c(Cl)c1 [Compound I-0740] | < 100 |  | < 100 | 
28 | Cn1c(-c2cc(C#N)ccc2Cl)cc2c(c1=O)c(=O)n(-c1cnc3ccc(Cl)cn13)c(=O)n2Cc1cc(F)c(F)c(F)c1 [Compound I-0741] | 4.3 | 105 |  | 
29 | COc1nc(N2CC[C@H](OC)C2)cc2c1c(=O)n(-c1cnc3cc(F)ccn13)c(=O)n2-c1ccc(F)c(Cl)c1 [Compound I-0742] | < 100 |  | < 100 | 
30 | COc1nc(N2CCOCC2)cc2c1c(=O)n(-c1cnc3cc(F)ccn13)c(=O)n2-c1ccc(F)c(Cl)c1 [Compound I-0743] | 22 | 19.3 |  | 
31 | COc1nc(N2CC[C@@H](OC)C2)cc2c1c(=O)n(-c1cncc(Cl)c1)c(=O)n2-c1ccc(F)c(Cl)c1 [Compound I-0744] | 1.4 | 6.94 |  | 
32 | COc1nc(N2CC[C@@H](O)C2)cc2c1c(=O)n(-c1cnc3cc(F)ccn13)c(=O)n2-c1ccc(F)c(Cl)c1 [Compound I-0745] | < 100 |  | < 100 | 
33 | COc1nc(N2CC[C@@H](F)C2)cc2c1c(=O)n(-c1cnc3cc(F)ccn13)c(=O)n2-c1ccc(F)c(Cl)c1 [Compound I-0746] | 1.4 | 5.6 |  | 
34 | COc1nc(N2C[C@@H](F)[C@@H](F)C2)cc2c1c(=O)n(-c1cnc3cc(F)ccn13)c(=O)n2-c1ccc(F)c(Cl)c1 [Compound I-0747] | < 100 |  | < 100 | 
35 | COc1nc(N2C[C@H](F)[C@@H](F)C2)cc2c1c(=O)n(-c1cnc3cc(F)ccn13)c(=O)n2-c1ccc(F)c(Cl)c1 [Compound I-0748] | < 100 |  | < 100 | 
36 | COc1nc(N2CC[C@H](CO)C2)cc2c1c(=O)n(-c1cnc3cc(F)ccn13)c(=O)n2-c1ccc(F)c(Cl)c1 [Compound I-0749] | < 100 |  | < 100 | 
37 | COc1nc(N2CC[C@@H](CO)C2)cc2c1c(=O)n(-c1cnc3cc(F)ccn13)c(=O)n2-c1ccc(F)c(Cl)c1 [Compound I-0750] | 6.1 | 25.9 |  | 
38 | [2H]C([2H])([2H])O[C@@H]1CCN(c2cc3c(c(OC)n2)c(=O)n(-c2cnc4cc(F)ccn24)c(=O)n3-c2ccc(F)c(Cl)c2)C1 [Compound I-0751] | < 100 |  | < 100 | 
39 | COc1nc(N2CCCC2)cc2c1c(=O)n(-c1cnc3cc(F)ccn13)c(=O)n2-c1ccc(F)c(Cl)c1 [Compound I-0752] | < 100 |  | < 100 | 
40 | COc1nc(N2CC(O)(C(F)(F)F)C2)cc2c1c(=O)n(-c1cnc3cc(F)ccn13)c(=O)n2-c1ccc(F)c(Cl)c1 [Compound I-0753] | 21 | 35.7 |  | 
41 | COc1nc(N2[C@@H]3COC[C@H]2C3)cc2c1c(=O)n(-c1cnc3cc(F)ccn13)c(=O)n2-c1ccc(F)c(Cl)c1 [Compound I-0755] |  |  |  | IC50 (SARS-CoV-2 3CL protease; [4]): 5.6 nM; EC50 (SARS-CoV-2): 7.06 nM
42 | COc1nc(N2C[C@@H]3[C@H](C2)C3(F)F)cc2c1c(=O)n(-c1cnc3cc(F)ccn13)c(=O)n2-c1ccc(F)c(Cl)c1 [Compound I-0759] | < 100 |  | < 100 | 
43 | COc1nc(N2CC(C)(OC)C2)cc2c1c(=O)n(-c1cnc3cc(F)ccn13)c(=O)n2-c1ccc(F)c(Cl)c1 [Compound I-0762] | < 100 |  | < 100 | 
44 | COc1nc(N2CC[C@@H](OC(F)F)C2)cc2c1c(=O)n(-c1cnc3cc(F)ccn13)c(=O)n2-c1ccc(F)c(Cl)c1 [Compound I-0763] | < 100 |  | < 100 | 
45 | [2H]C([2H])([2H])O[C@@H]1CCN(c2cc3c(c(OC)n2)c(=O)n(-c2cnc4cc(F)ccn24)c(=O)n3-c2cc(Cl)c(F)c(OC)c2)C1 [Compound I-0764] | < 100 |  | < 100 | 
46 | COc1cc(N2CCCC2)cc2c1c(=O)n(Cc1ncn(C)n1)c(=O)n2Cc1cc(Cl)ccc1Cl [Compound I-0784] | < 100 |  | 100 to 1000 | 
47 | COc1cc(N2CCCC2)cc2c1c(=O)n(Cc1ncn(C)n1)c(=O)n2Cc1cc(Cl)ccc1Br [Compound I-0786] | < 100 |  | 100 to 1000 | 
48 | COc1nc(N2CC[C@@H](F)C2)cc2c1c(=O)n(Cc1ncn(C)n1)c(=O)n2-c1ccc(C)c(Cl)c1 [Compound I-0800] | < 100 |  | < 100 | 
49 | COc1nc(N2CC[C@@H](F)C2)cc2c1c(=O)n(Cc1ncn(C)n1)c(=O)n2-c1cc(F)c(Cl)c(Cl)c1 [Compound I-0802] | 24 | 11.2 |  | 
